Columns and labels:
[1] = microbe, parasite or virus in culture; assay type: functional, Influenza A virus (A/ts1/1/A/FPV/Rostock/1934(H7N1)); conditions: Influenza A virus, 36 h
in vitro = conditions: chicken, primary chicken embryo cells
[2] = test system: Human immunodeficiency virus 1; assay: Antiviral activity against HIV-1 zmb infected in human MT-4 cells after 72 hrs by MTT assay; assay type: functional, organism-based, MT4
[3] = Selectivity ratio of MTD for human MT-4 cells to EC50 for HIV-1 zmb infected in human MT-4 cells; assay type: ADME, cell-based, MT4
[4] = Human immunodeficiency virus 1, zmb, MT4, 72 h, read-out: EC50

SMILES | EC50 [1] | selectivity ratio (in vitro) | EC50 ([2]; mt4) | selectivity ratio [3] | EC50 [2, 4]
C=C(C)[C@@H]1CC[C@]2(C(=O)OC)CC[C@]3(C)[C@H](CC[C@@H]4[C@@]5(C)C/C(=N\O)C(=O)C(C)(C)[C@@H]5CC[C@]43C)[C@@H]12 | 98 µM | 4.1 | – | – | –
CC1(C)C=C(C#N)[C@]2(C)[C@H]3CC[C@@H]4[C@H]5[C@H]6OC[C@@]5(CCC6(C)C)CC[C@@]4(C)[C@]3(C)CC[C@@H]12 | – | – | Not Active | – | –
CC1(C)CC[C@]23CC[C@]4(C)[C@H](CC[C@@H]5[C@@]6(C)C/C(=N\O)[C@H](O)C(C)(C)[C@@H]6CC[C@]54C)[C@H]2[C@H]1OC3 | > 100 µM | – | – | – | –
C=C(C)[C@@H]1CC[C@]2(C(=O)OC)CC[C@]3(C)[C@H](CC[C@@H]4[C@@]5(C)C(C#N)=CC(C)(C)[C@@H]5CC[C@]43C)[C@@H]12 | – | – | – | 3.2 | 50.5 µM
COC(=O)[C@@]1(C)CCC2(C)CC[C@]3(C)C(=CC(=O)[C@@H]4[C@@]5(C)C/C(=N\O)C(=O)C(C)(C)[C@@H]5CC[C@]43C)[C@@H]2C1 (single isomer, unassigned) | > 100 µM | – | – | – | –
C=C(C)[C@@H]1CC[C@]2(C(=O)OC)CC[C@]3(C)[C@H](CC[C@@H]4[C@@]5(C)C(C#N)=C(N)C(C)(C)[C@@H]5CC[C@]43C)[C@@H]12 | – | – | Not Active | – | –
COC(=O)[C@@]1(C)CCC2(C)CC[C@]3(C)C(=CC(=O)[C@@H]4[C@@](C)(CC#N)[C@H](C(C)(C)C=O)CC[C@]43C)[C@@H]2C1 (single isomer, unassigned) | 53.5 µM | 15.1 | – | – | –
CC(C)(/C=N/O)[C@@H]1CC[C@]2(C)[C@H](CC[C@@H]3[C@H]4[C@H]5OC[C@@]4(CCC5(C)C)CC[C@]32C)[C@@]1(C)CC#N | 58.7 µM | 7.2 | – | – | –
C=C(C)[C@@H]1CC[C@]2(C(=O)O)CC[C@]3(C)[C@H](CC[C@@H]4[C@@](C)(CC#N)[C@H](C(C)(C)/C=N/O)CC[C@]43C)[C@@H]12 | 18.2 µM | 5.7 | – | 50 | 0.06 µM
C=C(C)[C@@H]1CC[C@]2(C(=O)OC)CC[C@]3(C)[C@H](CC[C@@H]4[C@@](C)(CC#N)[C@H](C(C)(C)/C=N/O)CC[C@]43C)[C@@H]12 | 22.7 µM | 35.4 | Not Active | – | –
COC(=O)[C@@]1(C)CCC2(C)CC[C@]3(C)C(=CC(=O)[C@@H]4[C@@]5(C)C/C(=N\O)[C@H](O)C(C)(C)[C@@H]5CC[C@]43C)[C@@H]2C1 (single isomer, unassigned) | 57.2 µM | 3.4 | – | – | –
CC1(C)CC[C@]23CC[C@]4(C)[C@H](CC[C@@H]5[C@@]6(C)C(C#N)=C(N)C(C)(C)[C@@H]6CC[C@]54C)[C@H]2[C@H]1OC3 | – | – | Not Active | – | –
C=C(C)[C@@H]1CC[C@]2(C(=O)OC)CC[C@]3(C)[C@H](CC[C@@H]4[C@@]5(C)C/C(=N\O)[C@H](O)C(C)(C)[C@@H]5CC[C@]43C)[C@@H]12 | > 100 µM | – | – | – | –
C=C(C)[C@@H]1CC[C@]2(C(=O)O)CC[C@]3(C)[C@H](CC[C@@H]4[C@@](C)(CC#N)[C@H](C(C)(C)C=O)CC[C@]43C)[C@@H]12 | 7.7 µM | 3.5 | – | – | –
C=C(C)[C@@H]1CC[C@]2(C(=O)O)CC[C@]3(C)[C@H](CC[C@@H]4[C@@]5(C)C/C(=N\O)C(=O)C(C)(C)[C@@H]5CC[C@]43C)[C@@H]12 | 12.9 µM | 64.1 | – | 51.5 | 0.06 µM
CC1(C)CC[C@]23CC[C@]4(C)[C@H](CC[C@@H]5[C@@]6(C)C/C(=N\O)C(=O)C(C)(C)[C@@H]6CC[C@]54C)[C@H]2[C@H]1OC3 | > 100 µM | – | – | – | –
C/N=C/C(C)(C)[C@@H]1CC[C@]2(C)[C@H](C(=O)C=C3[C@@H]4C[C@@](C)(C(=O)OC)CC[C@]4(C)CC[C@]32C)[C@@]1(C)CC#N | 51.9 µM | 15.1 | – | – | –
C=C(C)[C@@H]1CC[C@]2(C(=O)O)CC[C@]3(C)[C@H](CC[C@@H]4[C@@]5(C)C/C(=N\O)[C@H](O)C(C)(C)[C@@H]5CC[C@]43C)[C@@H]12 | 31.5 µM | 6.8 | – | – | –
